Results on 2 cell lines are retold here after the supplement of paper PMC10307832.

Holding throughout (test): relative viability (nuclei count vs DMSO), 5 days (fraction); higher = more cells survive
Compound in experiment [1]: CC1=NC=CC(=C1)C2=CC=C(C=C2)CC(=O)NC3=CC=C(C=C3)C4=CN=CC=C4 [Wnt-C59] + CC(=O)Nc1cccc(-n2c(=O)n(C3CC3)c(=O)c3c(Nc4ccc(I)cc4F)n(C)c(=O)c(C)c32)c1 [Trametinib] (partner 0.02 µM)
The method in brief:
(§1)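 After 5 days of treatment, lung cancer cells in 1536-well plates were fixed and stained in a single step (final 0.05% Triton X-100, 1% formaldehyde, 1 ug/ml Hoechst) and their nuclei counted on 4× images. Treatment had been applied by pin tool the day after seeding as one drug alone or as a fixed anchor-drug dose with five library-drug doses (not always all listed) in √10 steps. Relative viability is the nuclei count of treated wells divided by that of vehicle wells, and values are medians of duplicate plates.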

Compound in experiment [2]: CC1=NC=CC(=C1)C2=CC=C(C=C2)CC(=O)NC3=CC=C(C=C3)C4=CN=CC=C4 [Wnt-C59] + NC(=O)Nc1cc(-c2cccc(F)c2)sc1C(=O)N[C@H]1CCCNC1 [AZD7762] (partner 0.2 µM)
The method in brief: as §1

Compound in experiment [3]: CS(=O)(=O)CCNCc1ccc(-c2ccc3ncnc(Nc4ccc(OCc5cccc(F)c5)c(Cl)c4)c3c2)o1 [Lapatinib] + CC(=O)c1c(C)c2cnc(Nc3ccc(N4CCNCC4)cn3)nc2n(C2CCCC2)c1=O [Palbociclib] (partner 0.5 µM)
A digest of the protocol: as §1

Compound in experiment [4]: CS(=O)(=O)CCNCc1ccc(-c2ccc3ncnc(Nc4ccc(OCc5cccc(F)c5)c(Cl)c4)c3c2)o1 [Lapatinib] + C[C@]1(O)C[C@@H](c2nc(-c3ccc4ccc(-c5ccccc5)nc4c3)c3c(N)nccn32)C1 [Linsitinib] (partner 1 µM)
A digest of the protocol:
as §1

Turning to RERF-LC-KJ, the relative viability is 0.936 in experiment [1] (first compound 0.001 µM); 0.884 in experiment [1] (first compound 0.01 µM); 0.962 in experiment [1] (first compound 0.03162 µM); 0.753 in experiment [1] (first compound 0.1 µM); 0.965 in experiment [2] (first compound 0.001 µM); 0.934 in experiment [2] (first compound 0.01 µM). Besides, the relative viability in experiment [2] (first compound 0.03162 µM) was 1.19; in experiment [2] (first compound 0.1 µM), 0.912; in experiment [3] (first compound 0.02 µM), 1.11; in experiment [3] (first compound 0.06325 µM) it was 0.885; in experiment [3] (first compound 0.2 µM), 0.996; in experiment [3] (first compound 0.6325 µM), 0.864. Moreover, the relative viability in experiment [3] (first compound 2 µM) was 0.799; in experiment [4] (first compound 0.02 µM), 0.841; in experiment [4] (first compound 0.06325 µM) it was 0.806; in experiment [4] (first compound 0.2 µM) it was 0.782; in experiment [4] (first compound 0.6325 µM), 0.748; in experiment [4] (first compound 2 µM), 0.697.

NCI-H1651: the relative viability in experiment [1] (first compound 0.001 µM) was found to be 0.857; in experiment [1] (first compound 0.01 µM), 0.875; in experiment [1] (first compound 0.03162 µM) it was 0.783; in experiment [1] (first compound 0.1 µM), 0.773; in experiment [2] (first compound 0.001 µM) it was 0.502; in experiment [2] (first compound 0.01 µM), 0.394. The relative viability in experiment [2] (first compound 0.03162 µM) was determined as 0.551; in experiment [2] (first compound 0.1 µM), 0.459; in experiment [3] (first compound 0.02 µM) it was 0.547; in experiment [3] (first compound 0.06325 µM), 0.456; in experiment [3] (first compound 0.2 µM), 0.483; in experiment [3] (first compound 0.6325 µM), 0.478. In addition, the relative viability in experiment [3] (first compound 2 µM) was 0.514; in experiment [4] (first compound 0.02 µM) it was 0.946; in experiment [4] (first compound 0.06325 µM) it was 0.884; in experiment [4] (first compound 0.2 µM), 0.922; in experiment [4] (first compound 0.6325 µM) it was 0.846; in experiment [4] (first compound 2 µM) it was 0.9.
